Experimental data reported in patent US6362163B1, “Parathyroid hormone-related peptide analogs” (The General Hospital Corporation, priority 1996, dated 2002).

How the values were obtained:
PTH/PTHrP receptor [1] = target: T1, PTH/PTHrP receptor (Homo sapiens, UniProt Q03431); assay: Ligand-induced intracellular cAMP accumulation, COS-7 cells expressing human PTH/PTHrP receptor; assay type: cell-based; details: for cAMP agonist activity in words, PTH/PTHrP receptor: COS-7 cells; for cAMP accumulation Maximum, PTH/PTHrP receptor: highest level of cAMP attained, basal 4.6 ± 0.2 not subtracted, 1h at room temperature
T1 construct: expressed in transfected cells; host or cells: COS-7 cells, transient transfection, vector pcDNA-1
T1 sequence (Q03431 27-593): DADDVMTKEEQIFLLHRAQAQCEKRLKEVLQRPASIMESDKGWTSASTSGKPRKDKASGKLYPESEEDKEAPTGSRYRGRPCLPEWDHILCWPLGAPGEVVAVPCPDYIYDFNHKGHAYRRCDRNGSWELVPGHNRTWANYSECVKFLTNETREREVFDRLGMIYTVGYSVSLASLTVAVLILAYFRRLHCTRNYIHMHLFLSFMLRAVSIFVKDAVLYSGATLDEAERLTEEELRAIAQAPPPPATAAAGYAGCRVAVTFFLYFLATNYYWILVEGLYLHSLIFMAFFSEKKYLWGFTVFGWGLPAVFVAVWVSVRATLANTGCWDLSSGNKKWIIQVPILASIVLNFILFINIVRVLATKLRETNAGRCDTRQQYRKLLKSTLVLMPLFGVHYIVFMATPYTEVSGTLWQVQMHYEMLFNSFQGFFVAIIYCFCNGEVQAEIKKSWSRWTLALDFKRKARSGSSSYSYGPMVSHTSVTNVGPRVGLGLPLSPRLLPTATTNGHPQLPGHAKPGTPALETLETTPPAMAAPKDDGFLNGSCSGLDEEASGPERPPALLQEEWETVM
Protocol: (§1) The cDNAs encoding the human PTH/PTHrP receptor (Schipani, E. et al., Endocrinology 132:2157-2165 (1993)) and the human PTH-2 receptor (Usdin, T. et al., J. Biol. Chem. 270:15455-15458 (1995)) were carried on the expression vectors pcDNA-1 and pcDNAI/Amp (InVitrogen, San Diego, Calif.), respectively. COS-7 cells were cultured and transfected as described previously (Lee, C. et al., Mol. Endocrinol. 9:1269-1278 (1995)). Cells were transfected in 24-well plates using plasmid DNA (200 ng/well) purified by cesium chloride/ethidium bromide gradient centrifugation. Ligand binding and cAMP accumulation assays were performed three days after transfection, by which time the cell density reached 500,000±100,000 cells/well.
(§2) Transfected COS-7 cells were rinsed with […] of binding buffer. 200 μl of IBMX buffer (DMEM containing 2 mM IBMX, 1 mg/ml bovine serum albumin, 35 mM Hepes-NaOH, pH 7.4) and […] of binding buffer or binding buffer containing various amounts of a PTH or PTHrP analog were then added. The plates were incubated for 60 minutes at room temperature. The buffer was then withdrawn and the cells lysed by placing the plates on powdered dry ice and adding 0.5 ml of 50 mM HCl. The acid lysate was diluted 1/30 in dH2O, and an aliquot (5-50 μl) analyzed for cAMP content by radioimmunoassay. […] The cells were then incubated for 30 minutes at room temperature, and the resulting intracellular cAMP was measured by RIA. Data were analyzed using the AssayZap software (Elsevier Science Publishers BV, Cambridge, United Kingdom).

PTH-2 receptor [2] = target: T2, PTH-2 receptor (Homo sapiens, UniProt P49190); assay: Ligand-induced intracellular cAMP accumulation, COS-7 cells expressing human PTH-2 receptor; assay type: cell-based; details: for cAMP accumulation Maximum, PTH-2 receptor: highest level of cAMP attained, basal 5.4 ± 0.3 not subtracted, 1h at room temperature; for cAMP agonist activity in words, PTH-2 receptor: COS-7 cells
T2 construct: expressed in transfected cells; host or cells: COS-7 cells, transient transfection, vector pcDNAI/Amp
Protocol: as §1, §2

PTH/PTHrP receptor [3] = target: T1, PTH/PTHrP receptor; assay: Competition radioligand binding, COS-7 cells transfected with human PTH/PTHrP receptor; details: for Binding in words, PTH/PTHrP receptor: competition with radioligand, COS-7 cells
Protocol: as §1
(§3) Binding reactions were performed as described previously. Id. Each well (final volume: […]) contained 26 fmole of ^125I-[Nle^8,21,Tyr^34]rPTH(1-34)NH2 (100,000 CPM) and various amounts (0.4-300 pmole) of an unlabeled competitor ligand, both diluted in binding buffer (50 mM Tris-HCl, pH 7.7, 100 mM NaCl, 5 mM KCl, 2 mM CaCl, 5% heat-inactivated horse serum, 0.5% heat-inactivated fetal bovine serum). Incubations were at room temperature for 2 hours, except for experiments involving Scatchard analysis, which were performed at 4° C. for 6 hours. At the end of the binding reaction, the cells were rinsed 3 times with 0.5 ml of binding buffer, lysed with 0.5 ml of 5M NaOH, and the entire lysate was counted. Nonspecific binding of tracer (NSB), determined in wells containing 1 μM of [NleTyr^8,21,Tyr^34]rPTH-(1-34)NH2, was ˜1% of total counts added. Maximum specific binding (B0) was calculated as the total radioactivity bound to cells in the absence of unlabeled PTH ligand, minus NSB. […] For Scatchard analyses, homologous competition binding studies were performed that used ^125I-[-NleTyr^8,21,Tyr^34]rPTH-(1-34)NH2 (26 fmole/well) and varying amounts (1.2-300 pmol) of the same unlabeled ligand. Estimates of the number of receptors/cell derived from these studies assumed a single class of binding sites and a transfection efficiency of 20% (Abou-Samra, A. B. et al., Proc. Natl. Acad. Sci (USA) 89:2732-2736 (1992)).

PTH-2 receptor [4] = target: T2, PTH-2 receptor; assay: Competition radioligand binding, COS-7 cells transfected with human PTH-2 receptor; details: for Binding in words, PTH-2 receptor: competition with radioligand, COS-7 cells
Protocol: as §1, §3

PTH-2 receptor [5] = target: T2, PTH-2 receptor; assay: Antagonism of PTH-(1-34)-induced cAMP formation, COS-7 cells expressing PTH-2 receptor; assay type: cell-based; details: 30 minutes at room temperature, IBMX
Protocol: (§4) FIGS. 7A and 7B depicts the antagonism of PTH-(1-34)-induced cAMP formation in COS-7 cells expressing PTH/PTHrP or PTH-2 receptors. […] The corresponding basal cAMP levels in cells not treated with peptide were […] pmoles/well, respectively. Data are the mean (±s.e.m.) of two experiments, each performed in duplicate.
as §2

PTH/PTHrP receptor [6] = target: T1, PTH/PTHrP receptor; assay: Antagonism of PTH-(1-34)-induced cAMP formation, COS-7 cells expressing PTH/PTHrP receptor; assay type: cell-based; details: 30 minutes at room temperature, IBMX
Protocol: as §4, §2

[7] = agonist [Tyr34]hPTH-(1-34)NH2 1 nM

T2 sequence (P49190 25-550): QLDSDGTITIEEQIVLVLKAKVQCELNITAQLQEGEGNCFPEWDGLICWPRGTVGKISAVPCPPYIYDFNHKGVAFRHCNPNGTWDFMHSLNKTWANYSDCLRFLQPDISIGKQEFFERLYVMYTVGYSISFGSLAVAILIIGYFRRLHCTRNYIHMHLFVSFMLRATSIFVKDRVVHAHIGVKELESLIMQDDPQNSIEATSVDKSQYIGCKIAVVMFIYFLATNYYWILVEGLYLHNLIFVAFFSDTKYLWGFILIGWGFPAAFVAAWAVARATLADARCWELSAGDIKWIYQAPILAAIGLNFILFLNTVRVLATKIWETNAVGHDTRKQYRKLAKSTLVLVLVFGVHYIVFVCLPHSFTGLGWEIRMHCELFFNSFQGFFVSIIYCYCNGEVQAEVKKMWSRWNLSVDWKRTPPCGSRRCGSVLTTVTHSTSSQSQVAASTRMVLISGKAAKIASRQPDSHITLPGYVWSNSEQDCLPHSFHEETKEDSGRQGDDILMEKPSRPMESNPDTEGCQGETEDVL

| cAMP agonist activity in words, PTH/PTHrP receptor (PTH/PTHrP receptor [1]) | cAMP accumulation Maximum, PTH/PTHrP receptor (PTH/PTHrP receptor [1]) [pmoles/well] | cAMP accumulation Maximum, PTH-2 receptor (PTH-2 receptor [2]) [pmoles/well] | cAMP agonist activity in words, PTH-2 receptor (PTH-2 receptor [2]) | Binding affinity, fold weaker than PTH-(1-34) (PTH/PTHrP receptor [3]; PTH/PTHrP receptor) | Binding potency, fold weaker than PTH-(1-34) (PTH-2 receptor [4]; PTH-2 receptor) | Binding in words, PTH-2 receptor (PTH-2 receptor [4]) | cAMP level in cells treated with agonist alone, PTH-2 receptor (PTH-2 receptor [5]; 1 nM) [pmoles/well] | cAMP level in cells treated with agonist alone, PTH/PTHrP receptor (PTH/PTHrP receptor [6]; 1 nM) [pmoles/well] | Binding potency, fold more potent than PTHrP-(1-36) (PTH/PTHrP receptor [3]; PTH/PTHrP receptor, inhibition of radioligand binding) [fold] | Reduction in binding potency compared to unsubstituted PTH-(1-34) (PTH-2 receptor [4]; PTH-2 receptor) [fold] | Binding affinity, fold stronger than PTHrP-(1-36) (PTH/PTHrP receptor [3]; PTH/PTHrP receptor) [fold] | Enhancement of binding potency compared to PTHrP-(1-36) (PTH-2 receptor [4]; PTH-2 receptor) [fold] | Substance | Binding in words, PTH/PTHrP receptor (PTH/PTHrP receptor [3]) | Inhibition of PTH-(1-34)-induced cAMP activity in words, PTH-2 receptor (PTH-2 receptor [5]; [7]) | Effect on PTH-(1-34)-induced cAMP response in words, PTH/PTHrP receptor (PTH/PTHrP receptor [6]; [7]) |
| --- | --- | --- | --- | --- | --- | --- | --- | --- | --- | --- | --- | --- | --- | --- | --- | --- |
| efficiently stimulated cAMP formation | 116 ± 19 | 10 ± 1 |  |  |  |  |  |  |  |  |  |  | [H5, Y34]hPTH-(1-34)NH2 | competed very poorly |  |  |
| full and potent agonists |  | 11 ± 1 | nearly inactive | six-fold weaker binding | more than 100 fold | bound poorly |  |  |  |  |  |  | [Tyr^36]hPTHrP-(1-36)NH2 [[Y36]hPTHrP-(1-36)NH2, reference compound] | fully inhibited binding of the radioligand |  |  |
| full and potent agonists | 113 ± 13 | 81 ± 5 | potent agonist |  |  | bound with high apparent affinity | 70±8 | 167±17 | 4.8 |  |  |  | [Tyr^34]hPTH-(1-34)NH2 [[Y34]hPTH-(1-34)NH2, reference compound] | fully inhibited binding of the radioligand |  |  |
|  | 104 ± 16 | 50 ± 8 | nearly a full agonist | 2-3 fold |  |  |  |  |  | 28 |  |  | [F23, Y34]hPTH-(1-34)NH2 |  |  |  |
| potent agonist | 123 ± 14 | 12 ± 1 | inactive |  |  |  |  |  |  |  | 6 | 71 | [Trp^23,Tyr^36]hPTHrP-(1-36) [[W23, Y36]hPTHrP-(1-36)NH2] |  | at least as potent as [Leu^11,D-Trp^12]hPTHrP(7-34)NH2 | not an antagonist, but instead augmented the agonist response to PTH-(1-34) |
|  |  |  |  |  |  | competed weakly |  |  |  |  |  |  | [Y36]hPTHrP-(15-36)NH2 |  |  |  |
